Our source for the NOEL, LOEL and NOAEL values is EPA's ToxValDB 9.5.

Data set [1] deals with Rattus norvegicus. Particulars: oral.
The test system of data set [2] is Rattus norvegicus. Particulars: oral. This is another data set of the same source.
Setting [3] is: short-term, duration: 28 days, gavage, F, Sprague-Dawley, Clinical Observation: Piloerection + Urinalysis: pH decrease, K decrease + Relative Organ Weight: Spleen increase.
The mark [4] stands for this setting: short-term, duration: 28 days, gavage, M, Sprague-Dawley, Clinical Observation: Piloerection + Urinalysis: pH decrease, K decrease + Relative Organ Weight: Spleen increase.
The mark [5] stands for this setting: short-term, duration: 28 days, gavage, M, Sprague-Dawley, Clinical Observation: Salivation + Urinalysis: Volume increase + Blood Chemistry: Ch E increase, T-CHO increase + Absolute Organ Weight: ….
[6] abbreviates: subchronic, gavage, M, Sprague-Dawley, Absolute Organ Weight: Seminal vesicle increase, Prostate increase + Relative Organ Weight: Seminal vesicle increase, Prostate increase.

Molecules are shown by their SMILES. Structures can show the parent of a compound that is named as a salt. Some results are limits rather than exact numbers.

Regarding `O=[N+]([O-])c1ccc(Oc2ccc(Cl)cc2Cl)cc1` [Nitrofen], the NOEL with Rattus norvegicus [1] (chronic, diet, M, Wistar, heart: Heart weight + spleen: Spleen weight) is 116 mg/kg-day; in the data set on Rattus norvegicus [1] (chronic, gavage, F, Wistar, heart: Heart weight + kidney: Kidney weight + liver: Liver weight), 127 mg/kg-day; in the data set with Rattus norvegicus [1] (subchronic, diet, F, Wistar, spleen: Spleen weight), 1280 mg/kg-day. The LOEL with Rattus norvegicus [1] (chronic, diet, M, Wistar, kidney: Kidney weight + liver: Liver weight + testes: Testes weight) stood at 116 mg/kg-day; with Rattus norvegicus [1] (chronic, gavage, F, Wistar, spleen: Spleen weight) it was 127 mg/kg-day; in the data set on Rattus norvegicus [1] (subchronic, diet, F, Wistar, heart: Heart weight + kidney: Kidney weight), 1280 mg/kg-day; in the data set on Rattus norvegicus [1] (subchronic, diet, F, Wistar, liver: Liver weight) it was 10 mg/kg-day; in the data set with Rattus norvegicus [1] (subchronic, diet, M, Sprague-Dawley, Albumin + Cholesterol + Globulin + Glucose + Terminal body weight + Total protein), 186 mg/kg-day; in the data set on Rattus norvegicus [1] (subchronic, diet, M, Sprague-Dawley, liver: Relative liver weight + Relative kidney weight + testes: Relative Testes weight), 37 mg/kg-day. Moreover, the LOEL with Rattus norvegicus [1] (subchronic, diet, M, Wistar, heart: Heart weight + spleen: Spleen weight) was found to be 1150 mg/kg-day; in the data set with Rattus norvegicus [1] (subchronic, diet, M, Wistar, kidney: Kidney Weight + testes: Testes weight), 230 mg/kg-day; in the data set with Rattus norvegicus [1] (subchronic, diet, M, Wistar, liver: Liver weight), 46 mg/kg-day.

`ClC(Cl)C(Cl)Cl` [1,1,2,2-Tetrachloroethane]: the NOEL was 10.1 mg/kg-day in the data set with Rattus norvegicus [2] (subchronic, diet, F, Fischer 344, Clinical Observation: Thinness Pallor + Body Weight Changes: decrease + Food Consumption: decrease + Hematology: Manual Hct decrease, Plt …); below 25.7 mg/kg-day in the data set on Rattus norvegicus [2] (subchronic, diet, M/F, Fischer 344, Clinical Observation: Thinness Pallor + Body Weight Changes: decrease + Food Consumption: decrease + Hematology: Manual Hct decrease, Plt …); 16.6 mg/kg-day in the data set on Rattus norvegicus [2] (subchronic, diet, M, Fischer 344, Clinical Observation: Thinness Pallor + Body Weight Changes: decrease + Food Consumption: decrease + Hematology: Manual Hct decrease, Plt …). As to `CCC(C)(C)OC` [tert-Amyl methyl ether], the NOAEL in the data set with Rattus norvegicus [2] (short-term, duration: 29 days, gavage, M/F, Sprague-Dawley, Deaths + Clinical Observation: Rales Anogenital staining + Body Weight Changes: Mean body weight decrease + Food Consumption: decrease + …) was 125 mg/kg-day. Regarding `CCCCCCCCCCCCC(C(=O)OC)S(=O)(=O)[O-].[Na+]` (centres undefined) [Sodium 1-methoxy-1-oxotetradecane-2-sulfonate], the NOEL stood at 249 mg/kg-day with Rattus norvegicus [2] (subchronic, diet, F, Crj: CD (SD), Blood Chemistry: TG decrease + Absolute Organ Weight: Testis increase + Relative Organ Weight: Testis increase); 0.3% in the data set with Rattus norvegicus [2] (subchronic, diet, M/F, Crj: CD (SD), Blood Chemistry: TG decrease + Absolute Organ Weight: Testis increase + Relative Organ Weight: Testis increase); 175 mg/kg-day in the data set with Rattus norvegicus [2] (subchronic, diet, M, Crj: CD (SD), Blood Chemistry: TG decrease + Absolute Organ Weight: Testis increase + Relative Organ Weight: Testis increase).

With `O=[N+]([O-])c1ccc(Cl)c([N+](=O)[O-])c1` [1-Chloro-2,4-dinitrobenzene], the NOEL in the data set on Rattus norvegicus [2] (subchronic, gavage, M, Sprague-Dawley, Relative Organ Weight: Thymus decrease + Histopathology: Stomach/forestomach- Squamous cell hyperplasia Stomach/forestomach -inflammatory …) turned out to be 1 mg/kg-day. As for `OCC#CCO` [2-Butyne-1,4-diol], in the data set with Rattus norvegicus [2] (short-term, duration: 28 days, gavage, M/F, Wistar, Deaths + Body Weight Changes: decrease + Food Consumption: decrease + Hematology: RET increase, WBC increase, Neut increase, Lymph increase…), the NOEL was 1 mg/kg-day. For the compound `Nc1ccccc1Cl` [2-Chloroaniline], the NOEL with Rattus norvegicus [2] (subchronic, gavage, M/F, Fischer 344, Deaths + Clinical Observation: Tremors Wasting Bluish discoloration of genital and footpad regions + Body Weight Changes: decrease + …) was below 10 mg/kg-day. In the case of `C=CCOC(=O)c1ccccc1C(=O)OCC=C` [Diallyl phthalate], the NOEL with Rattus norvegicus [2] (subchronic, duration: 13 weeks, gavage, M/F, Fischer 344, Deaths + Histopathology: Liver/periportal-Hepatocellular alteration Liver/periportal-Necrosis Liver/periportal-Fibrosis Liver/bile duct- …) amounted to 25 mg/kg-day. Consider `O=[N+]([O-])c1ccc(Nc2ccc(Nc3ccccc3)c(S(=O)(=O)[O-])c2)c([N+](=O)[O-])c1.[Na+]` [C.I. Acid Orange 3], for which the NOEL in the data set on Rattus norvegicus [2] (subchronic, duration: 13 weeks, gavage, M/F, Fischer 344, Deaths + Body Weight Changes: decrease + Histopathology: Kidney-Nephrosis Kidney-Suppurative inflammation Kidney/Renal papilla - Necrosis …) stood at 750 mg/kg-day. As for `O=C(CO)[C@@H](O)[C@H](O)[C@H](O)CO[C@H]1O[C@H](CO)[C@@H](O)[C@H](O)[C@H]1O` [6-O-Hexopyranosylhex-2-ulofuranose], the NOEL in the data set on Rattus norvegicus [2] (subchronic, duration: 13 weeks, diet, Wistar) came out at 10%.

As to `Cc1[nH]n(-c2ccccc2)c(=O)c1N=Nc1ccc(-c2ccc(N=Nc3c(C)[nH]n(-c4ccccc4)c3=O)c(Cl)c2)cc1Cl` [C.I. Pigment Orange 13], the NOEL with Rattus norvegicus [2] (subchronic, gavage, Sprague-Dawley) amounted to 1000 mg/kg-day. In the case of `NS(=O)(=O)Cc1noc2ccccc12` [Zonisamide], in the data set with Rattus norvegicus [2] (short-term, duration: 28 days, gavage, M/F, Sprague-Dawley, Deaths + Clinical Observation: Locomotor activity decrease, Ataxic gait Hypotonia, Abdominal region + Body Weight Changes: Body weight gain …), the no-observed-adverse-effect level (NOAEL) came out at 20 mg/kg-day.

With `CCCCC(CC)COP(=O)(O)CC(CC)CCCC` (centres undefined) [Phosphonic acid, P-(2-ethylhexyl)-, mono(2-ethylhexyl) ester], the NOEL with Rattus norvegicus [2] (subchronic, gavage, M, Sprague-Dawley, Hematology: Hgb decrease, Hct decrease + Blood Chemistry: Alb increase, A/G increase + Absolute Organ Weight: Liver increase + Relative …) was determined as 30 mg/kg-day. For `CC(O)c1ccccc1` (stereo not drawn) [alpha-Methylbenzyl alcohol], in the data set with Rattus norvegicus [2] (subchronic, duration: 13 weeks, gavage, M/F, Fischer 344, Deaths + Clinical Observation: Ataxia Rapid breathing Lethargy + Body Weight Changes: decrease + Urinalysis: -- + Absolute Organ Weight: …), the NOEL is below 93 mg/kg-day. As to `Clc1ccc(Cl)nn1` [Pyridazine, 3,6-dichloro-], the NOEL in the data set with Rattus norvegicus [2] (short-term, duration: 28 days, gavage, F, Sprague-Dawley, Body Weight Changes: decrease, Weight gain decrease + Food Consumption: decrease + Urinalysis: BIL increase + Blood Chemistry: TP increase, …) came out at 10 mg/kg-day. `CCCN(CCC)S(=O)(=O)c1ccc(C(=O)O)cc1` [Probenecid]: the NOEL with Rattus norvegicus [2] (subchronic, duration: 13 weeks, gavage, M/F, Fischer 344, Clinical Observation: Yellow-brown staining of the perineum + Body Weight Changes: decrease + Absolute Organ Weight: Liver increase, Right …) was below 50 mg/kg-day.

With `OCC1CO1` (centres undefined) [Glycidol], the NOEL in the data set with Rattus norvegicus [2] (subchronic, duration: 13 weeks, gavage, M/F, Fischer 344, Deaths + Body Weight Changes: decrease + Absolute Organ Weight: -- + Histopathology: Brain /cerebellum-Necrosis Brain-Demyelination Kidney-…) is below 25 mg/kg-day. For `CCOP(OCC)OCC` [Triethyl phosphite], the NOAEL in the data set with Rattus norvegicus [2] (subchronic, duration: 32 days, gavage, M/F, Deaths + Clinical Observation: Impaired general condition Emaciation Unkempt fur + Body Weight Changes: Weight gain decrease + Food …) is 150 mg/kg-day. As for `O=C(O)c1cccc([N+](=O)[O-])c1C(=O)O` [3-Nitrophthalic acid], in the data set with Rattus norvegicus [2] (setting [3]), the NOAEL was 500 mg/kg-day and the NOEL was determined as 500 mg/kg-day. Moreover, in the data set on Rattus norvegicus [2] (setting [4]), the LOEL amounted to 500 mg/kg-day, the NOAEL was found to be 500 mg/kg-day and the NOEL is 100 mg/kg-day. As for `Cc1cc(O)c(C)c(C)c1O` [2,3,5-Trimethylhydroquinone], the NOEL in the data set with Rattus norvegicus [2] (subchronic, gavage, M, Sprague-Dawley, Deaths + Clinical Observation: Salivation Locomotor activity decrease, Irregular respiration + Body Weight Changes: decrease + Hematology: …) is below 10 mg/kg-day. Consider `O=C(O)C(Cl)(Cl)Cl` [Trichloroacetic acid], for which the NOEL in the data set on Rattus norvegicus [2] (short-term, duration: 28 days, gavage, M/F, Clinical Observation: Salivation Soft feces Locomotor activity decrease + Urinalysis: Ketone body increase + Hematology: WBC increase, Trend…) came to 40 mg/kg-day. Regarding `O=C(O)[C@H]1CCCC[C@H]1C(=O)O` [cis-1,2-Cyclohexanedicarboxylic acid], in the data set on Rattus norvegicus [2] (subchronic, gavage, M, Sprague-Dawley, Deaths + Clinical Observation: Dead (4/12)Soiled perigenitalia of urine + Hematology: WBC increase, Neutrophils(%) increase, Lymphocytes(%) …), the NOEL came out at 300 mg/kg-day. As for `CCCCCOC(=O)c1c(Cl)c(Cl)cc(Cl)c1OC(=O)C(=O)Oc1c(Cl)cc(Cl)c(Cl)c1C(=O)OCCCCC` [Bis(2,4,5-trichloro-6-carbopentoxyphenyl) oxalate], the NOEL in the data set on Rattus norvegicus [2] (short-term, duration: 28 days, gavage, M/F, Deaths + Clinical Observation: Salivation + Hematology: PT increase, APTT increase + Blood Chemistry: TP increase, ALB increase, TG …) is below 8 mg/kg-day.

Turning to `N#CC(Cl)(Cl)Cl` [Trichloroacetonitrile], the NOEL in the data set on Rattus norvegicus [2] (short-term, duration: 28 days, gavage, M/F, Clinical Observation: Salivation Locomotor activity decrease, Bradypnea Ptosis Flushing of auricle Staggering gait + Body Weight Changes: …) stood at 40 mg/kg-day.

Take `c1ccc(Nc2ccc3ccccc3c2)cc1` [N-Phenyl-2-naphthylamine]: the NOEL in the data set with Rattus norvegicus [2] (subchronic, duration: 13 weeks, diet, M/F, Fischer 344, Deaths + Clinical Observation: Rough coats + Body Weight Changes: decrease + Absolute Organ Weight: Liver increase + Relative Organ Weight…) is 240 mg/kg-day. Regarding `CC[Si](Cl)(Cl)Cl` [Ethyl silicon trichloride], the NOAEL in the data set with Rattus norvegicus [2] (short-term, duration: 28 days, gavage, M/F, Wistar, Clinical Observation: Staggering gait + Body Weight Changes: decrease + Relative Organ Weight: Liver increase, (Low and middle doses were …) was determined as 250 mg/kg-day. As for `Nc1ccccc1C(=O)O` [Anthranilic acid], in the data set on Rattus norvegicus [2] (setting [5]), the NOAEL was found to be 200 mg/kg-day and the NOEL was below 200 mg/kg-day.

In the case of `CC(C)OC1(OC(C)C)CCCCC1` [1,1-Diisopropoxycyclohexane], the NOEL with Rattus norvegicus [2] (subchronic, gavage, M, Sprague-Dawley, Clinical Observation: Salivation + Food Consumption: increase + Blood Chemistry: T-Cho increase + Absolute Organ Weight: Liver increase, …) stood at 40 mg/kg-day. Regarding `CC/C=C\CCOC(C)=O` [(3Z)-3-Hexenyl acetate], in the data set with Rattus norvegicus [2] (setting [6]), the NOAEL came out at 1000 mg/kg-day and the NOEL came to 300 mg/kg-day. For the compound `C=CCOC(=O)c1ccccc1-c1ccccc1C(=O)OCC=C`, the NOEL in the data set on Rattus norvegicus [2] (short-term, duration: 28 days, gavage, M/F, Clinical Observation: Salivation + Hematology: APTT increase, PT increase + Blood Chemistry: GOT increase, GPT increase, gamma-GTP increase…) was determined as 6 mg/kg-day.

On to `COc1ccccc1OCCNCC(O)COc1cccc2[nH]c3ccccc3c12` (centres undefined) [Carvedilol], for which the NOEL in the data set on Rattus norvegicus [2] (chronic, duration: 91 days, gavage, M/F, Wistar, Deaths + Clinical Observation: Salivation Lacrimation Ptosis Locomotor activity decrease + Body Weight Changes: Body weight gain decrease + …) is 30 mg/kg-day. As to `BrCCCCCCCCCCBr` [1,10-Dibromodecane-], the NOEL in the data set on Rattus norvegicus [2] (short-term, duration: 28 days, gavage, M/F, Sprague-Dawley, Clinical Observation: Salivation + Water Consumption: increase + Blood Chemistry: BUN increase, Cl increase + Absolute Organ Weight: Liver …) was below 8 mg/kg-day. As to `CC(C)OC(=O)C(C)(C)Oc1ccc(C(=O)c2ccc(Cl)cc2)cc1` [Fenofibrate], the NOAEL in the data set on Rattus norvegicus [2] (chronic, duration: 91 days, gavage, M/F, CD, Body Weight Changes: decrease + Food Consumption: decrease + Urinalysis: WBCEpithelial cell + Hematology: RBC decrease, HCT decrease, HGB …) is 5 mg/kg-day.

Usually NOAEL stands for the highest tested level that showed no adverse finding.
